Assay results reported in US4469701A, “Pyrrolid-3-en-2-ones and pharmaceutical methods of use thereof” (Stauffer Chemical Company, priority 1983, dated 1984).

What was measured:
[1] = tested on: rats; experiment: Bradycardia: heart rate by EKG in rats; type: in vivo, rat; conditions: Rattus norvegicus, 0.75 h; 45 min. after a 5 mg/kg oral dose in rats; significance >10; read-out: B = Bradycardiac: percent decrease in heart rate
Protocol: […] Decrease in heart rate by more than 10% (>10) is considered a bradycardic effect.
Percent decrease in heart rate 45 min. after a 5
mg/kg oral dose in rats.

[2] = tested on: mice; experiment: Antiarrhythmic: chloroform-induced cardiac arrhythmia in mice; type: in vivo, mouse; conditions: for A = Antiarrythmic: mouse hearts fibrillating (of 3): 15 min. after a 200 mg/kg intraperitoneal dose, significance <2
Protocol: ^2 A = Antiarrythmic. Less than 2/3 mouse hearts fibrillating 15 min.

[3] = tested on: rats; experiment: Antiulcer: stress induced gastric ulcers in rats; type: in vivo, rat; conditions: for inhibition in vivo at 50 mg/kg: 4 hr. following a 50 mg/kg oral dose in rats, significance >60, read-out: U = Antiulcerative: percent inhibition of stress ulcers
Protocol: Fasted rats were dosed, p.o., 30 minutes before immobilization in wire mesh and partial immersion in water for 4 hours. Inhibition of the resulting stress induced gastric ulcers by more than 60% (>60) indicates activity.
^6 U = Antiulcerative. Percent inhibition of stress ulcers 4 hr.
following a 50 mg/kg oral dose in rats.

[4] = tested on: spontaneously hypertensive rats (SHR); experiment: Antihypertensive: blood pressure (tail cuff) in spontaneously hypertensive rats (SHR); type: in vivo, rat; conditions: for inhibition in vivo at 100 mg/kg: 6 hr. after a 100 mg/kg oral dose, significance >10, read-out: Antihypertensive: percent decrease in systolic blood pressure in spontaneously hypertensive rats
Protocol: Blood pressure was measured indirectly (tail cuff) in unanesthetized, unheated spontaneously hypertensive rats (SHR) before and 2, 4, and 6 hours after p.o. dosing. Reduction in mean pressure by more than 10% (>10) at any two consecutive measurement times after dosing indicates antihypertensive activity.

[5] = tested on: hypercholesterolemic mice; experiment: Hypocholesterolemic: serum cholesterol in hypercholesterolemic mice; type: in vivo, mouse; conditions: hypercholesterolemic mice; for inhibition in vivo at 200 mg/kg / ED100: Mus musculus; for inhibition in vivo at 200 mg/kg: 2 oral doses of 200 mg/kg 20 hr. apart, significance >20, read-out: C = Hypocholesterolemic: percent decrease in serum cholesterol; for ED100: po, read-out: ED-100, hypocholesterolemic
Protocol: Mice made hypercholesterolemic by being fed a high cholesterol-cholic acid diet for 7 days were dosed on the sixth and seventh days, p.o. After fasting overnight, reduction in serum cholesterol concentration by more than 15% (>15) from hypercholesterolemic control mice indicates activity.
^4 C = Hypocholesterolemic. Percent decrease in serum cholesterol in
hypercholesterolemic mice given 2 oral doses of 200 mg/kg drug candidate

[6] = tested on: hypercholesterolemic mice; experiment: HP-betalipoprotein: serum heparin precipitating lipoprotein (HPL); type: in vivo, mouse; conditions: hypercholesterolemic mice; for ED100: Mus musculus, po, read-out: ED-100, HP-betalipoprotein
Text: Reduction of serum heparin precipitating lipoprotein (HPL) concentrations (corresponding to low density lipoprotein and very low density lipoprotein fractions) in the same hypercholesterolemic mice from Test 6 above by more than 20% (>20) from control animals indicates activity.

[7] = tested on: mice; experiment: Pupil dilation in mice; type: in vivo, mouse; conditions: i.p.; for Reference dose, pupil dilation: reference compounds and the doses thereof
Protocol: If the pupil diameter of mice exceeds 1.0 mm (>1) in bright light 30 minutes after dosing, i.p., ganglionic blockage or anti-cholinergic activity is indicated in the absence of adrenergic action. The following are reference compounds and the doses thereof.

[8] = tested on: mice; experiment: Acute toxicity / autonomic effects observation; conditions: mouse, in vivo
Protocol: Mice were dosed at 300 mg/kg, per oral (p.o.) and […], interperitoneal (i.p.) for observation of any acute toxic symptoms or autonomic effects during the subsequent 72 hours. If none were noted, pharmacological evaluation proceeded employing doses and concentrations for each test based on appropriate multiples of doses required by suitable reference compounds. If acute toxicity was observed initially, the minimal toxic dose was determined and pharmacological screening doses were reduced proportionately.

[9] = tested on: glucose-loaded mice; experiment: Hypoglycemic, glucose-loaded mice; type: in vivo, mouse; conditions: for H = Hypoglycemic: percent decrease in serum glucose concentration: glucose loaded mice, 100 mg/kg oral dose, significance >20; for ED100: Mus musculus, po, 1 h, p.o., reference compounds, read-out: ED-100, hypoglycemic, mice
Protocol: Reduction in blood glucose concentration by more than 20% (>20) in fasted, glucose-loaded (1 gm/kg) mice one hour after dosing, p.o., indicates activity (test compound administered at same time as glucose load).
^5 H = Hypoglycemic. Percent decrease in serum glucose concentration
in glucose loaded mice hr. following a 100 mg/kg oral dose.

[10] = Anticholinergic properties (overall statement); conditions: in vivo
[11] = Central nervous system (CNS) depression/effects; conditions: in vivo
[12] = tested on: mice; experiment: Central anticholinergic: oxotremorine tremors in mice; conditions: Mus musculus, ip, 1 h, read-out: ED-100, central anticholinergic
[13] = tested on: mice; experiment: Peripheral anticholinergic: lacrimation and salivation in mice; type: in vivo; conditions: Mus musculus, ip, read-out: ED-100, peripheral anticholinergic
[14] = tested on: rats; experiment: Antiedema: carrageenan paw edema in rats; type: in vivo; conditions: Rattus norvegicus, po, 3 h, read-out: ED-100, antiedema
Protocol: Rats are dosed p.o. one hour before intraplantar injection of carrigeenan (0.1 ml, 1% susp.). Inhibition of paw edema by more than 30% (>30) 3 hours after carriegeenan injection indicates acute anti-edema activity.

[15] = tested on: starch loaded mice; experiment: Carbohydrate (CHO) efficiency/hypoglycemic, starch loaded mice; type: in vivo, mouse; conditions: for ED100: Mus musculus, 1 h, oral, reference compounds, read-out: ED-100, CHO efficiency/hypoglycemic
[16] = p.o., rats, reference compounds

## Cc1cccc(N2CC(CN3C(C)(C)CCCC3(C)C)=CC2=O)c1 [Compound 4]
[1]
  inhibition in vivo at 5 mg/kg: 19%
[2]
  A = Antiarrythmic: mouse hearts fibrillating (of 3): 2
[2]; i.p., mice, chloroform arrhythmia
  Dose with borderline antiarrhythmic result: 100 mg/kg
[3]; Rattus norvegicus
  inhibition in vivo at 50 mg/kg: 75%
[4]; Rattus norvegicus
  inhibition in vivo at 100 mg/kg: 23%
[4]; p.o.
  Antihypertensive activity, onset / comparison in words: generally comparable to that of Compound 3
  Dose at which antihypertensive effects were decreasing: 10 mg/kg
[5]
  inhibition in vivo at 200 mg/kg: 25%
[6]; 400 mg/kg, p.o.
  HPL/cholesterol ratio: marked reduction
[7]; 50 mg/kg
  Pupil dilation: significantly dilated

## CC1(C)CCCC(C)(C)N1CC1=CC(=O)N(c2ccccc2)C1 [Compound 6]
[1]
  inhibition in vivo at 5 mg/kg: 20%
[2]
  A = Antiarrythmic: mouse hearts fibrillating (of 3): 3
[3]; Rattus norvegicus
  inhibition in vivo at 50 mg/kg: 75%
[4]; Rattus norvegicus
  inhibition in vivo at 100 mg/kg: 18%
[5]
  inhibition in vivo at 200 mg/kg: 12%
[8]
  Autonomic effect / autonomic inhibition: little evidence of autonomic effect
[9]
  H = Hypoglycemic: percent decrease in serum glucose concentration: 29%

## CC1(C)CCCC(C)(C)N1CC1=CC(=O)N(c2ccccc2Cl)C1 [Compound 9]
[1]
  inhibition in vivo at 5 mg/kg: 18%
[2]
  A = Antiarrythmic: mouse hearts fibrillating (of 3): 0
[3]; Rattus norvegicus
  inhibition in vivo at 50 mg/kg: 100%
[4]; Rattus norvegicus
  inhibition in vivo at 100 mg/kg: 31%
[5]
  inhibition in vivo at 200 mg/kg: 0%
[10]
  Anticholinergic properties/effects: not likely anticholinergic in nature
[9]
  H = Hypoglycemic: percent decrease in serum glucose concentration: 27%
[7]; 25 mg/kg
  Ganglionic blockade as cause of pupillary dilation: does not appear to reflect ganglionic blockade
  Pupil dilation: Pupillary dilation was again noted

## CC1(C)CCCC(C)(C)N1CC1=CC(=O)N(c2cccc(Cl)c2)C1 [Compound 13]
[1]
  inhibition in vivo at 5 mg/kg: 1%
[2]
  A = Antiarrythmic: mouse hearts fibrillating (of 3): 3
[3]; Rattus norvegicus
  inhibition in vivo at 50 mg/kg: 88%
[4]; Rattus norvegicus
  inhibition in vivo at 100 mg/kg: 4%
[5]
  inhibition in vivo at 200 mg/kg: 13%
[11]
  CNS depression / CNS effects: absence of CNS
[8]
  Acute toxicity / toxic effects: absence
[10]
  Anticholinergic properties/effects: absence

## CC1(C)CCCC(C)(C)N1CC1=CC(=O)N(c2cccc(C#N)c2)C1 [Compound 15]
[1]
  inhibition in vivo at 5 mg/kg: 0%
[2]
  A = Antiarrythmic: mouse hearts fibrillating (of 3): 3
[3]; Rattus norvegicus
  inhibition in vivo at 50 mg/kg: 88%
[3]; rat, in vivo
  Antiulcer effect, in words: unusual and strong activity
[4]; Rattus norvegicus
  inhibition in vivo at 100 mg/kg: 19%
[5]
  inhibition in vivo at 200 mg/kg: 15%
[11]
  CNS depression / CNS effects: absence of CNS depression
[8]
  Acute toxicity / toxic effects: absence
[10]
  Anticholinergic properties/effects: absence

## c1cc(N2CCCCC2)ccc1OC12CC3CC(CC(C3)C1)C2 [Compound U-41792, reference compound]
[5]; p.o., reference compounds
  ED-100, hypocholesterolemic: 200 mg/kg
[6]; reference compounds
  ED-100, HP-betalipoprotein: 200 mg/kg

## N[C@H](Cc1cc(I)c(Oc2cc(I)c(O)c(I)c2)c(I)c1)C(=O)O [D-thyroxine, reference compound]
[5]; reference compounds
  ED100: 10 mg/kg
[6]; reference compounds
  ED100: 10 mg/kg

## CN(C)CCC=C1c2ccccc2CCc2ccccc21 [amitriptyline]
[12]
  ED100: 10 mg/kg
[13]; mice, reference compounds
  ED100: 25 mg/kg

## CC(=O)Oc1ccccc1C(=O)O [aspirin]
[14]
  ED100: 150 mg/kg

## CN1[C@@H]2CC[C@H]1C[C@@H](OC(=O)C(CO)c1ccccc1)C2 (stereo partly shown) [atropine, reference compound]
[3]; Rattus norvegicus, po, read-out: ED-100, antiulcer
  ED100: 5 mg/kg
[12]
  ED100: 2 mg/kg
[13]
  ED100: 0.25 mg/kg
[7]
  Reference dose, pupil dilation: 0.25 mg/kg

## CC(C)(Oc1ccc(CCNC(=O)c2ccc(Cl)cc2)cc1)C(=O)O [bezafibrate, reference compound]
[5]; reference compounds
  ED100: 200 mg/kg
[6]; reference compounds
  ED100: 200 mg/kg

## CN1CCN(C2=Nc3cc(Cl)ccc3Nc3ccccc32)CC1 [clozapine]
[12]
  ED100: 10 mg/kg
[13]; mice, reference compounds
  ED100: 10 mg/kg

## CC/C(=C(/CC)c1ccc(O)cc1)c1ccc(O)cc1 [diethylstilbestrol, reference compound]
[5]; reference compounds
  ED100: 200 mg/kg
[6]; reference compounds
  ED100: 200 mg/kg

## O=C(O)c1cc(-c2ccc(F)cc2F)ccc1O [diflunisal]
[14]; [16]
  ED100: 25 mg/kg

## COc1ccc(Cl)cc1C(=O)NCCc1ccc(S(=O)(=O)NC(=O)NC2CCCCC2)cc1 [glibenclamide, reference compound]
[15]
  ED100: 1 mg/kg
[9]; glucose-loaded mice
  ED100: 1 mg/kg

## C[C@]12CCC(=O)C=C1CC[C@@H]1[C@@H]2[C@@H](O)C[C@@]2(C)[C@H]1CC[C@]2(O)C(=O)CO [hydrocortisone]
[14]
  ED100: 25 mg/kg

## CC(C)Cc1ccc(C(C)C(=O)O)cc1 (stereo not shown) [ibuprofen]
[14]; [16]
  ED100: 25 mg/kg

## COc1ccc2c(c1)c(CC(=O)O)c(C)n2C(=O)c1ccc(Cl)cc1 [indomethacin]
[14]
  ED100: 4 mg/kg

## CC(C(=O)O)c1cccc(C(=O)c2ccccc2)c1 (stereo not shown) [ketoprofen]
[14]
  ED100: 5 mg/kg

## CNC1(C)C2CCC(C2)C1(C)C (stereo not shown) [mecamylamine, reference compound]
[4]; Rattus norvegicus, po, SHR, reference compounds, read-out: ED-100, antihypertensive
  ED100: 10 mg/kg
[7]
  Reference dose, pupil dilation: 2.5 mg/kg

## COc1ccc2cc([C@H](C)C(=O)O)ccc2c1 [naproxen]
[14]; [16]
  ED100: 5 mg/kg

## [H]/N=C(/N)N/C(=N/[H])NCCc1ccccc1 [phenformin, reference compound]
[15]
  ED100: 100 mg/kg
[9]; glucose-loaded mice
  ED100: 100 mg/kg

## CCCCC1C(=O)N(c2ccccc2)N(c2ccccc2)C1=O [phenylbutazone]
[14]; [16]
  ED100: 50 mg/kg

## CCCCNC(=O)NS(=O)(=O)c1ccc(C)cc1 [tolbutamide, reference compound]
[15]
  ED100: 50 mg/kg
[9]; glucose-loaded mice
  ED100: 50 mg/kg

## OC(CCN1CCCCC1)(c1ccccc1)C1CCCCC1 (stereo not shown) [trihexyphenidyl]
[12]
  ED100: 10 mg/kg
[13]; mice, reference compounds
  ED100: 2.5 mg/kg

## insulin
[15]; subcutaneous (s.c.)
  ED-100, CHO efficiency/hypoglycemic (insulin): 0.25 U
[9]; s.c., glucose-loaded mice
  ED-100, hypoglycemic, mice (insulin): 0.25 U
